What was measured:
MCF-7 cells = experiment: Cell cycle analysis (PI, flow cytometry); type: cell-based, human; conditions: MCF-7, 10 µM, 48 h; DMSO control 24.95%
Procedure: Figure 5. Flow cytometric analyses: cell cycle distribution analysis using PI staining method in which MCF-7 cells were treated by 6i (10 µM) and DMSO (negative control; NC) for 48 h; (A) 6i, (B) DMSO, (C) cells percentage in different phases (G0-G1, S, G2/M); apoptotic induction using annexin-V-FITC/PI staining method in which cancer cells were treated by 6i (10 µM) and DMSO (negative control; NC) for 24 h; (D) 6i, (E) DMSO, (F) histogram for induction of apoptosis.
The cell cycle assay was carried out according to the previously reported[36]^,[37]. Briefly, in a six-well plate, 2 ml of MCF-7 cells were seeded per well and incubated overnight at 37 °C and CO2 (5%). After 12 h incubation with serum-free medium, they were treated with 10 μM of 6i, incubated for 48 h, then washed twice with 1× PBS, trypsinised and centrifuged for 5 min (500 xg) at 4 °C. And then the cell pellet, in ice-cold 1× PBS, was fixed with absolute ethanol at −20 °C for 2 h, washed with 1× PBS ice-cold solution and finally stained with propidium iodide (PI)/RNase (Abcam, ab139418) for 0.5 h at 25 °C in the dark. flow cytometry determined the DNA content in cell phases using BD FACS Calibur[36]^,[37].

CCRF-CEM = conditions: Leukaemia, five-dose 0.01–100 µM
MOLT-4 [1] = conditions: MOLT-4, Leukaemia; five-dose 0.01–100 µM
SW-620 = conditions: SW-620, Colon cancer; five-dose 0.01–100 µM
HCT-15 = conditions: HCT-15, Colon cancer; five-dose 0.01–100 µM
SF-539 = conditions: SF-539, CNS cancer; five-dose 0.01–100 µM
U251 = conditions: U251, CNS cancer; five-dose 0.01–100 µM
LOX IMVI = conditions: Melanoma, five-dose 0.01–100 µM
MDA-MB-435 = conditions: MDA-MB-435, Melanoma; five-dose 0.01–100 µM
SK-MEL-28 = conditions: SK-MEL-28, Melanoma; five-dose 0.01–100 µM
OVCAR-3 = conditions: OVCAR-3, Ovarian cancer; five-dose 0.01–100 µM
IGROV1 = conditions: IGROV1, Ovarian cancer; five-dose 0.01–100 µM
MOLT-4 [2] = experiment: cells; conditions: Homo sapiens
CAKI-1 = conditions: CAKI-1, Renal cancer; five-dose 0.01–100 µM
ACHN = conditions: Renal cancer, five-dose 0.01–100 µM
UO-31 [3] = conditions: UO-31, Renal cancer; five-dose 0.01–100 µM
TK-10 = conditions: TK-10, Renal cancer; five-dose 0.01–100 µM
MDA-MB-231/ATCC [4] = conditions: Breast cancer, five-dose 0.01–100 µM
MCF7 = conditions: MCF7, Breast cancer; five-dose 0.01–100 µM
HOP-62 = experiment: cells; conditions: Homo sapiens
HOP-92 = experiment: cells; conditions: Homo sapiens
NCI-H522 = experiment: cells; conditions: Homo sapiens
KM12 = experiment: cells; conditions: Homo sapiens
SF-295 = experiment: cells; conditions: Homo sapiens
SNB-75 = experiment: cells; conditions: Homo sapiens
UACC-257 = experiment: cells; conditions: Homo sapiens
OVCAR-5 = experiment: cells; conditions: Homo sapiens
SK-OV-3 = experiment: cells; conditions: Homo sapiens
A498 = experiment: cells; conditions: Homo sapiens
SN12C = experiment: cells; conditions: Homo sapiens
UO-31 [5] = experiment: cells; conditions: Homo sapiens
DU-145 = experiment: cells; conditions: Homo sapiens
MDA-MB-231/ATCC [6] = experiment: cells; conditions: Homo sapiens

Q: What does the source list for `CCOC(=O)CC[C@H](NC(=O)c1ccc(NC(=O)Cn2cnc3c(c(C)nn3-c3ccc(Br)cc3)c2=O)cc1)C(=O)OCC` [Compound 6i]?
A: percentage of S-phase cells (MCF-7 cells): 36.29%; TGI (CCRF-CEM): >100 µM; TGI (MOLT-4 [1]): >100 µM; TGI (SW-620): 44.4 µM; TGI (HCT-15): >100 µM; TGI (SF-539): 33.0 µM; TGI (U251): >100 µM; TGI (LOX IMVI): 20.6 µM; TGI (MDA-MB-435): 34.3 µM; TGI (SK-MEL-28): 22.5 µM; TGI (OVCAR-3): 61.3 µM; TGI (IGROV1): 74.2 µM; GI50 (MOLT-4 [2]; MOLT-4): > 100 µM; CC50 (MOLT-4 [2]; MOLT-4, read-out: LC50): > 100 µM; TGI (CAKI-1): 22.1 µM; TGI (ACHN): 34.3 µM; TGI (UO-31 [3]): 55.9 µM; TGI (TK-10): 86.2 µM; TGI (MDA-MB-231/ATCC [4]): 26.8 µM; TGI (MCF7): 16.5 µM; GI50 (HOP-62; HOP-62): 5.11 µM; CC50 (HOP-62; HOP-62, read-out: LC50): 57.5 µM; GI50 (HOP-92; HOP-92): 6.01 µM; CC50 (HOP-92; HOP-92, read-out: LC50): 66.2 µM; GI50 (NCI-H522; NCI-H522): 17.1 µM; CC50 (NCI-H522; NCI-H522, read-out: LC50): 85 µM; GI50 (KM12; KM12): 16.1 µM; CC50 (KM12; KM12, read-out: LC50): > 100 µM; GI50 (SF-295; SF-295): 14.2 µM; CC50 (SF-295; SF-295, read-out: LC50): 71.6 µM; GI50 (SNB-75; SNB-75): 14.9 µM; CC50 (SNB-75; SNB-75, read-out: LC50): > 100 µM; GI50 (UACC-257; UACC-257): 31.5 µM; CC50 (UACC-257; UACC-257, read-out: LC50): > 100 µM; GI50 (OVCAR-5; OVCAR-5): 20.2 µM; CC50 (OVCAR-5; OVCAR-5, read-out: LC50): > 100 µM; GI50 (SK-OV-3; SK-OV-3): 21.8 µM; CC50 (SK-OV-3; SK-OV-3, read-out: LC50): > 100 µM; GI50 (A498; A498): 24.9 µM; CC50 (A498; A498, read-out: LC50): 93 µM; GI50 (SN12C): 29.2 µM; CC50 (SN12C; read-out: LC50): > 100 µM; GI50 (UO-31 [5]; UO-31): 18.1 µM; CC50 (UO-31 [5]; UO-31, read-out: LC50): > 100 µM; GI50 (DU-145; DU-145): 7.47 µM; CC50 (DU-145; DU-145, read-out: LC50): > 100 µM; GI50 (MDA-MB-231/ATCC [6]; MDA-MB-231): 11.5 µM; CC50 (MDA-MB-231/ATCC [6]; MDA-MB-231, read-out: LC50): 62.5 µM
